Read-outs that look alike come from different tables or passages of the source.
Legend:
primary human T-cells [1] = assay: Proliferation assay after 5 days (CellTiter-Glo, CD3 stimulation; PBS counter screen); type: cell-based; settings: Homo sapiens, T-cell, 120 h, CD3 stimulation; for Emax: 5 days, normalized to reference compound A1 as stimulator control = 100%, DMSO neutral control, read-out: Emax proliferation (% activation); for EC50: primary human T-cells, CellTiter-Glo after 5 days, EC50 of fitted sigmoidal curve, read-out: Tcell Proliferation CD3 EC50
Outline: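 Proliferation is measured 5 days post-treatment as ATP-dependent luminescence. Flags mark compounds that activated unstimulated cells or harmed viability.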

primary human T-cells [2] = tested on: primary human T-cells

EC50 (primary human T-cells [2])	SMILES	Emax (primary human T-cells [1])	EC50 (primary human T-cells [1])
0.451 µM	CC(C)c1nnc(-c2cc3c(cc2F)S(=O)(=O)C[C@H](N)C(=O)N3Cc2ccc(Cl)cc2)o1 [Example 84, (3R)-3-Amino-5-[(4-chlorophenyl)methyl]-8-fluoro-7-(5-isopropyl-1,3,4-oxadiazol-2-yl)-1,1-dioxo-2,3-dihydro-1λ^6,5-benzothiazepin-4-one]	191%	0.227 µM
0.47 µM	N[C@H]1CS(=O)(=O)c2cc(F)c(-c3nnc(C4CC4)o3)cc2N(Cc2ccc(Cl)cc2)C1=O [Example 85, (3R)-3-Amino-5-[(4-chlorophenyl)methyl]-7-(5-cyclopropyl-1,3,4-oxadiazol-2-yl)-8-fluoro-1,1-dioxo-2,3-dihydro-1λ^6,5-benzothiazepin-4-one]	100%	0.237 µM
1.53 µM	CN(C)C(=O)c1nnc(-c2cc3c(cc2F)S(=O)(=O)C[C@H](N)C(=O)N3Cc2ccc(Cl)cc2)o1 [Example 87, N,N-dimethyl-5-[(3R)-3-amino-5-[(4-chlorophenyl)methyl]-8-fluoro-1,1,4-trioxo-2,3-dihydro-1λ^6,5-benzothiazepin-7-yl]-1,3,4-oxadiazole-2-carboxamide]	82%	2.74 µM
0.689 µM	CC1(c2nnc(-c3cc4c(cc3F)S(=O)(=O)C[C@H](N)C(=O)N4Cc3ccc(Cl)cc3)o2)CCCO1 (stereo partly drawn) [Example 88, (3R)-3-amino-5-[(4-chlorophenyl)methyl]-8-fluoro-7-[5-(2-methyltetrahydrofuran-2-yl)-1,3,4-oxadiazol-2-yl]-1,1-dioxo-2,3-dihydro-1λ^6,5-benzothiazepin-4-o]	97%	0.242 µM
0.117 µM	CC(C)OCc1nnc(-c2cc3c(cc2F)S(=O)(=O)C[C@H](N)C(=O)N3Cc2ccc(Cl)cc2)o1 [Example 89, (3R)-3-amino-5-[(4-chlorophenyl)methyl]-8-fluoro-7-[5-(isopropoxymethyl)-1,3,4-oxadiazol-2-yl]-1,1-dioxo-2,3-dihydro-1λ^6,5-benzothiazepin-4-one]	104%	0.615 µM
0.819 µM	CC(C)(C)NC(=O)c1nnc(-c2cc3c(cc2F)S(=O)(=O)C[C@H](N)C(=O)N3Cc2ccc(Cl)cc2)o1 [Example 90, N-tert-butyl-5-[(3R)-3-amino-5-[(4-chlorophenyl)methyl]-8-fluoro-1,1,4-trioxo-2,3-dihydro-1λ^6,5-benzothiazepin-7-yl]-1,3,4-oxadiazole-2-carboxamide]	96%	2.34 µM
0.145 µM	CC1(c2nnc(-c3cc4c(cc3F)S(=O)(=O)C[C@H](N)C(=O)N4Cc3ccc(Cl)cc3)o2)CCOCC1 [Example 92, (3R)-3-amino-5-[(4-chlorophenyl)methyl]-8-fluoro-7-[5-(4-methyltetrahydropyran-4-yl)-1,3,4-oxadiazol-2-yl]-1,1-dioxo-2,3-dihydro-1λ^6,5-benzothiazepin-4-one]	141%	0.196 µM
0.66 µM	N[C@H]1CS(=O)(=O)c2cc(F)c(-c3nnc(C(=O)N4CCCC(F)(F)C4)o3)cc2N(Cc2ccc(Cl)cc2)C1=O [Example 93, (3R)-3-amino-5-[(4-chlorophenyl)methyl]-7-[5-(3,3-difluoropiperidine-1-carbonyl)-1,3,4-oxadiazol-2-yl]-8-fluoro-1,1-dioxo-2,3-dihydro-1λ^6,5-benzothiazepin-4-one]	100%	1.75 µM
0.161 µM	N[C@H]1CS(=O)(=O)c2cc(F)c(-c3nnc(C4CC5(C4)CC(F)(F)C5)o3)cc2N(Cc2ccc(Cl)cc2)C1=O [Example 94, (3R)-3-amino-5-[(4-chlorophenyl)methyl]-7-[5-(2,2-difluorospiro[3.3]heptan-6-yl)-1,3,4-oxadiazol-2-yl]-8-fluoro-1,1-dioxo-2,3-dihydro-1λ^6,5-benzothiazepin-4-one]	85%	0.0181 µM
5.36 µM	CS(=O)(=O)CCc1nnc(-c2cc3c(cc2F)S(=O)(=O)C[C@H](N)C(=O)N3Cc2ccc(Cl)cc2)o1 [Example 95, (3R)-3-amino-5-[(4-chlorophenyl)methyl]-8-fluoro-7-[5-(2-methylsulfonylethyl)-1,3,4-oxadiazol-2-yl]-1,1-dioxo-2,3-dihydro-1λ^6,5-benzothiazepin-4-one]	67%	6.16 µM
1.04 µM	N[C@H]1CS(=O)(=O)c2cc(F)c(-c3nnc(-c4ccccc4)o3)cc2N(Cc2ccc(Cl)cc2)C1=O [Example 97, (3R)-3-amino-5-[(4-chlorophenyl)methyl]-8-fluoro-1,1-dioxo-7-(5-phenyl-1,3,4-oxadiazol-2-yl)-2,3-dihydro-1λ^6,5-benzothiazepin-4-one]	115%	0.52 µM
0.0712 µM	Cc1ccccc1-c1nnc(-c2cc3c(cc2F)S(=O)(=O)C[C@H](N)C(=O)N3Cc2ccc(Cl)cc2)o1 [Example 98, (3R)-3-amino-5-[(4-chlorophenyl)methyl]-8-fluoro-7-[5-(o-tolyl)-1,3,4-oxadiazol-2-yl]-1,1-dioxo-2,3-dihydro-1λ^6,5-benzothiazepin-4-one]	112%	0.0646 µM
0.105 µM	N[C@H]1CS(=O)(=O)c2cc(F)c(-c3nnc(-c4ccc(F)cc4)o3)cc2N(Cc2ccc(Cl)cc2)C1=O [Example 99, (3R)-3-amino-5-[(4-chlorophenyl)methyl]-8-fluoro-7-[5-(4-fluorophenyl)-1,3,4-oxadiazol-2-yl]-1,1-dioxo-2,3-dihydro-1λ^6,5-benzothiazepin-4-one]	112%	0.0822 µM
0.484 µM	Cc1cccc(F)c1-c1nnc(-c2cc3c(cc2F)S(=O)(=O)C[C@H](N)C(=O)N3Cc2ccc(Cl)cc2)o1 [Example 100, (3R)-3-amino-5-[(4-chlorophenyl)methyl]-8-fluoro-7-[5-(2-fluoro-6-methyl-phenyl)-1,3,4-oxadiazol-2-yl]-1,1-dioxo-2,3-dihydro-1λ^6,5-benzothiazepin-4-one]	89%	0.0496 µM
0.0722 µM	CC(C)Cc1nnc(-c2cc3c(cc2F)S(=O)(=O)C[C@H](N)C(=O)N3Cc2ccc(Cl)cc2)o1 [Example 101, (3R)-3-amino-5-[(4-chlorophenyl)methyl]-8-fluoro-7-(5-isobutyl-1,3,4-oxadiazol-2-yl)-1,1-dioxo-2,3-dihydro-1λ^6,5-benzothiazepin-4-one]	121%	0.0491 µM
> 10 µM	CC1(c2nnc(-c3cc4c(cc3F)S(=O)(=O)C[C@H](N)C(=O)N4Cc3ccc(Cl)cc3)o2)CNC1 [Example 102, (3R)-3-amino-5-[(4-chlorophenyl)methyl]-8-fluoro-7-[5-(3-methylazetidin-3-yl)-1,3,4-oxadiazol-2-yl]-1,1-dioxo-2,3-dihydro-1λ^6,5-benzothiazepin-4-one]	65%	7.69 µM

SMILES	EC50 (primary human T-cells [2])	Emax (primary human T-cells [1])	EC50 (primary human T-cells [1])
N[C@H]1CS(=O)(=O)c2cc(F)c(-c3nnc(C(=O)N4[C@@H]5CCC[C@H]4CC5)o3)cc2N(Cc2ccc(Cl)cc2)C1=O [Example 96, (3R)-3-amino-5-[(4-chlorophenyl)methyl]-8-fluoro-1,1-dioxo-7-[5-[(1R,5S)-8-azabicyclo[3.2.1]octane-8-carbonyl]-1,3,4-oxadiazol-2-yl]-2,3-dihydro-1λ^6,5-benzothiazepin-4-one]	0.604 µM	46%	> 2.73 µM

From patent US20240368150A1 (Hoffmann-La Roche Inc., priority 2021, published 2024)
